The values that follow come from US10392391B2 (Vertex Pharmaceuticals Incorporated, priority 2012, dated 2019).

SMILES strings stand for the structures. Where only a bound is given, the exact number is not on record here.

ATR kinase (full-length ATR), sequence (Q13535 whole entry): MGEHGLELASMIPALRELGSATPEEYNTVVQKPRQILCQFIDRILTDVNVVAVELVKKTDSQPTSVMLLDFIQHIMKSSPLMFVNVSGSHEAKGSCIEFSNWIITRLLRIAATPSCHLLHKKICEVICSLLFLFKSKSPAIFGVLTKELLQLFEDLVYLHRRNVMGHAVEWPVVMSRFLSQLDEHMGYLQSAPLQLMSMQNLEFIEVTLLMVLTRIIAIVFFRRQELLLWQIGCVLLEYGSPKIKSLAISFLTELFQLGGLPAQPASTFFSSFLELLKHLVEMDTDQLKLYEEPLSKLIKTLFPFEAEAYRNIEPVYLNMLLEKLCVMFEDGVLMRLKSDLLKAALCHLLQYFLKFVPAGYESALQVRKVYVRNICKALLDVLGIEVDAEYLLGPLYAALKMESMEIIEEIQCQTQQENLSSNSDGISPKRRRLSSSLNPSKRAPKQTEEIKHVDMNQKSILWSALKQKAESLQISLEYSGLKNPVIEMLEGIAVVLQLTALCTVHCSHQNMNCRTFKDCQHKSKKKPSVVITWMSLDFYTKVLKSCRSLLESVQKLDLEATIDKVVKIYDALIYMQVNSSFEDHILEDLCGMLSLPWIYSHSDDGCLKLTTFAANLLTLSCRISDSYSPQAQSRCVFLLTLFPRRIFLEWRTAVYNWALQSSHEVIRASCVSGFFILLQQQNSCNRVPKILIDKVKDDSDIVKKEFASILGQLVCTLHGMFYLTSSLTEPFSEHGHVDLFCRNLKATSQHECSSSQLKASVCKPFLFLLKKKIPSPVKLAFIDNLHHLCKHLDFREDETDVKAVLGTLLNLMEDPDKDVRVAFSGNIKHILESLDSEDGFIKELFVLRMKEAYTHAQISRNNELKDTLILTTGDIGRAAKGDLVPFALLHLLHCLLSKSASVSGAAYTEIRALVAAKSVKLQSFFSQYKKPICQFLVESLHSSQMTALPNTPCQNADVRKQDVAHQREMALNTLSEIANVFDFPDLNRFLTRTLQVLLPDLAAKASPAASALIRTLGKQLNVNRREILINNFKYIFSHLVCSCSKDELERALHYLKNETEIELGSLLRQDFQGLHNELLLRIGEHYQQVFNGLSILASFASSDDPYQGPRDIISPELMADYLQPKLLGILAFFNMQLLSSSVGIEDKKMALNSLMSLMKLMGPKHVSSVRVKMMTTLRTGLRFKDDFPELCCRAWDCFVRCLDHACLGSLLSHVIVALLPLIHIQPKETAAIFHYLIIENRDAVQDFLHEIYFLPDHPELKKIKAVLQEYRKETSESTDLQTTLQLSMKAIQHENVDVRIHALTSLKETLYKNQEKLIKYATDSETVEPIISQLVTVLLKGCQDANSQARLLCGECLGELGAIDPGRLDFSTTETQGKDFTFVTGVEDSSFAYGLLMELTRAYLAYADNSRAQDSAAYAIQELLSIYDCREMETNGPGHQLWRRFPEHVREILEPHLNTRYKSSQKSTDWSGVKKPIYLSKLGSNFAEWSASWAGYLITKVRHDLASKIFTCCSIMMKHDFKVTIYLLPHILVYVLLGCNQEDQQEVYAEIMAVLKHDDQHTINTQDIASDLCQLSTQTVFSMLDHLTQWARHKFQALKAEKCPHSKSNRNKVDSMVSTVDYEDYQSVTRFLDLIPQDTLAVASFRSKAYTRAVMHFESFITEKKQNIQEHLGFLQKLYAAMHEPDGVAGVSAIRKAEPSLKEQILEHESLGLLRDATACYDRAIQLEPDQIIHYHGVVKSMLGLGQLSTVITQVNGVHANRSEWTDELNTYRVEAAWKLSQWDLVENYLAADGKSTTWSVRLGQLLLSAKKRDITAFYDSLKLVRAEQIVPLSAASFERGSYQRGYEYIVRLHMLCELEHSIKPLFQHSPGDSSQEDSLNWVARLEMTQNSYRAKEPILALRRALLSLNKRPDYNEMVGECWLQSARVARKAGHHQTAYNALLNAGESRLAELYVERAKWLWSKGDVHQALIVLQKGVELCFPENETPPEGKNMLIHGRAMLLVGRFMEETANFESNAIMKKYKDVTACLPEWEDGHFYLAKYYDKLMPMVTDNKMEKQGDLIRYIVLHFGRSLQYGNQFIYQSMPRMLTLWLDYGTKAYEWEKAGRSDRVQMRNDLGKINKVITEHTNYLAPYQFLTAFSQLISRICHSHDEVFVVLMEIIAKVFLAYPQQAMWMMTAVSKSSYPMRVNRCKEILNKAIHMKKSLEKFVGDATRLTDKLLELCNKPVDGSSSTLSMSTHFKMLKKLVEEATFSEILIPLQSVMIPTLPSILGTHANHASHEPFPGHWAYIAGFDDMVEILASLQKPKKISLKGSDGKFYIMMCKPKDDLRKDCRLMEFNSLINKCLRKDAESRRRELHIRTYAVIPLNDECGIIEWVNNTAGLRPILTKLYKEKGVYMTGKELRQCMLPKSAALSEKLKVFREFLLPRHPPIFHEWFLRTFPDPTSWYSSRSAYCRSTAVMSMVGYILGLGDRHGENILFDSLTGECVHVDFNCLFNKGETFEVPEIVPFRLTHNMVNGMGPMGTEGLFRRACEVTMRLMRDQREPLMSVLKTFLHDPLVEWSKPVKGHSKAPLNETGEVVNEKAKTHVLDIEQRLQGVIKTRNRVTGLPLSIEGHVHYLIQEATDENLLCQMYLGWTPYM

One assay has as its target ATR kinase (full-length ATR) (Homo sapiens (Human), UniProt Q13535). The assay is described as follows: ATR inhibition assay (radioactive-phosphate incorporation). In kind it is biochemical.
Details: not given
The essentials:
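Radiometric 33P incorporation by 5 nM full-length ATR into 800 μM target peptide with 10 μM [γ-33P]ATP, in 50 mM Tris/HCl pH 7.5, 10 mM MgCl2, 1 mM DTT, 7% DMSO, 25° C. Compound pre-incubated 10 minutes; reaction stopped after 24 hours, captured on phosphocellulose. Ki(app) from non-linear regression of initial rates.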
Turning to `CC(C)(C#N)c1cnc2c(C(=O)Nc3cncc(F)c3N3CCN(C4COC4)CC3)c(N)nn2c1` [I-N-144], the Ki lay within 1000 to 5000 nM.
On the same count and under the same terms, under `CC(C)(C#N)c1cnc2c(C(=O)Nc3cnccc3N3CCN(C4COC4)CC3)c(N)nn2c1` [I-N-142, 2-amino-6-(2-cyanopropan-2-yl)-N-(4-(4-(oxetan-3-yl)piperazin-1-yl)pyridin-3-yl)pyrazolo[1,5-a]pyrimidine-3-carboxamide] stands 1000 to 5000 nM.
The same measure, in the same setting: under `Cc1ccncc1NC(=O)c1c(N)nn2cc(Cl)cnc12` [I-C-2, 2-amino-6-chloro-N-(4-methylpyridin-3-yl)pyrazolo[1,5-a]pyrimidine-3-carboxamide] stands 1000 to 5000 nM.

The assay is the same for the next values; noted with them: Ki(app), 5 nM full-length ATR, 10 μM ATP, 25° C.
`Nc1nn2cc(F)cnc2c1C(=O)Nc1cnccc1N1CCC(C(=O)N2CCOCC2)CC1` [I-G-85, 2-amino-6-fluoro-N-(4-(4-(morpholine-4-carbonyl)piperidin-1-yl)pyridin-3-yl)pyrazolo[1,5-a]pyrimidine-3-carboxamide]: the Ki was 10 to 1000 nM.
Still for that read-out and setting: for `Cc1nnc(C2CCN(c3ccncc3NC(=O)c3c(N)nn4cc(F)cnc34)CC2)o1` [I-N-265, 2-amino-6-fluoro-N-(4-(4-(5-methyl-1,3,4-oxadiazol-2-yl)piperidin-1-yl)pyridin-3-yl)pyrazolo[1,5-a]pyrimidine-3-carboxamide] the value was 10 to 1000 nM; for `Nc1nn2cc(Cl)cnc2c1C(=O)Nc1cnccc1N1CCNCC1` [I-N-88, 2-amino-6-chloro-N-(4-(piperazin-1-yl)pyridin-3-yl)pyrazolo[1,5-a]pyrimidine-3-carboxamide], 10 to 1000 nM.
Same read-out and setting: under `Nc1nn2cc(F)cnc2c1C(=O)Nc1cncc(F)c1N1CCN2C(=O)CCC[C@H]2C1` [I-N-279, (S)-2-amino-6-fluoro-N-(5-fluoro-4-(6-oxohexahydro-1H-pyrido[1,2-a]pyrazin-2(6H)-yl)pyridin-3-yl)pyrazolo[1,5-a]pyrimidine-3-carboxamide] stands 10 to 1000 nM; under `N#CCc1cnc2c(C(=O)Nc3cnccc3OCCN)c(N)nn2c1` [I-O-83, 2-amino-N-(4-(2-aminoethoxy)pyridin-3-yl)-6-(cyanomethyl)pyrazolo[1,5-a]pyrimidine-3-carboxamide], < 10 nM.
The same measure, in the same setting: for `Nc1nn2cc(F)cnc2c1C(=O)Nc1cncc(F)c1N1CCC(C(=O)N2CCC(N3CCCCC3)C2)CC1` (stereo not drawn) [I-G-64, 2-amino-6-fluoro-N-(5-fluoro-4-(4-(3-(piperidin-1-yl)pyrrolidine-1-carbonyl)piperidin-1-yl)pyridin-3-yl)pyrazolo[1,5-a]pyrimidine-3-carboxamide] the value was 10 to 1000 nM; for `N#CCc1cnc2c(C(=O)Nc3cnccc3O[C@H]3CCOC3)c(N)nn2c1` [I-O-42, (S)-2-amino-6-(cyanomethyl)-N-(4-((tetrahydrofuran-3-yl)oxy)pyridin-3-yl)pyrazolo[1,5-a]pyrimidine-3-carboxamide], < 10 nM; for `CC(C)(O)CN1CCN(c2c(F)cncc2NC(=O)c2c(N)nn3cc(F)cnc23)CC1` [I-N-139, 2-amino-6-fluoro-N-(5-fluoro-4-(4-(2-hydroxy-2-methylpropyl)piperazin-1-yl)pyridin-3-yl)pyrazolo[1,5-a]pyrimidine-3-carboxamide], 10 to 1000 nM.
With `Nc1nn2cc(Cl)cnc2c1C(=O)Nc1cnccc1N1CCC(N2CCn3cncc3C2)CC1` [I-N-101, 2-amino-6-chloro-N-(4-(4-(5,6-dihydroimidazo[1,5-a]pyrazin-7(81-1)-yl)piperidin-1-yl)pyridin-3-yl)pyrazolo[1,5-a]pyrimidine-3-carboxamide], the Ki was 10 to 1000 nM.
The same measure, in the same setting: under `Nc1nn2cc(Cl)cnc2c1C(=O)Nc1cnccc1N1CCC(N2CC(F)(F)C2)CC1` [I-N-108, 2-amino-6-chloro-N-(4-(4-(3,3-difluoroazetidin-1-yl)piperidin-1-yl)pyridin-3-yl)pyrazolo[1,5-a]pyrimidine-3-carboxamide] stands 10 to 1000 nM.
Same read-out and setting: under `Nc1nn2cc(Cl)cnc2c1C(=O)Nc1cnccc1N1CCN(CC(F)(F)F)CC1` [I-N-67, 2-amino-6-chloro-N-(4-(4-(2,2,2-trifluoroethyl)piperazin-1-yl)pyridin-3-yl)pyrazolo[1,5-a]pyrimidine-3-carboxamide] stands 10 to 1000 nM; under `CN1CCN(c2cc(N)ncc2NC(=O)c2c(N)nn3cc(Cl)cnc23)CC1` [I-N-50, 2-amino-N-(6-amino-4-(4-methylpiperazin-1-yl)pyridin-3-yl)-6-chloropyrazolo[1,5-a]pyrimidine-3-carboxamide], 10 to 1000 nM.
For `Nc1nn2cc(F)cnc2c1C(=O)Nc1cnccc1N1CCC(S(=O)(=O)C2COC2)CC1` [I-N-200, 2-amino-6-fluoro-N-(4-(4-(oxetan-3-ylsulfonyl)piperidin-1-yl)pyridin-3-yl)pyrazolo[1,5-a]pyrimidine-3-carboxamide], the Ki is 10 to 1000 nM.
Same read-out and setting: under `CN1C2CCC1CN(C(=O)C1CCN(c3c(F)cncc3NC(=O)c3c(N)nn4cc(F)cnc34)CC1)C2` [I-G-52, 2-amino-6-fluoro-N-(5-fluoro-4-(4-(8-methyl-3,8-diazabicyclo[3.2.1]octane-3-carbonyl)piperidin-1-yl)pyridin-3-yl)pyrazolo[1,5-a]pyrimidine-3-carboxamide] stands 10 to 1000 nM; under `Cc1nc(C(=O)N2CCN(C)CC2)ccc1-c1ccncc1NC(=O)c1c(N)nn2cc(F)cnc12` [I-C-39, 2-amino-6-fluoro-N-(2-methyl-6-(4-methylpiperazine-1-carbonyl)-[3,4′-bipyridin]-3′-yl)pyrazolo[1,5-a]pyrimidine-3-carboxamide], 10 to 1000 nM.
The same measure, in the same setting: for `CN1CCN(C(=O)C2(C#N)CCN(c3c(F)cncc3NC(=O)c3c(N)nn4cc(F)cnc34)CC2)CC1` [I-G-25, 2-amino-N-(4-(4-cyano-4-(4-methylpiperazine-1-carbonyl)piperidin-1-yl)-5-fluoropyridin-3-yl)-6-fluoropyrazolo[1,5-a]pyrimidine-3-carboxamide] the value was 10 to 1000 nM.
The same measure, in the same setting: for `Nc1nn2cc(F)cnc2c1C(=O)Nc1cncc(F)c1N1CCC(C(=O)N2CC3(COC3)C2)CC1` [I-G-72, N-(4-(4-(2-oxa-6-azaspiro[3.3]heptane-6-carbonyl)piperidin-1-yl)-5-fluoropyridin-3-yl)-2-amino-6-fluoropyrazolo[1,5-a]pyrimidine-3-carboxamide] the value was 10 to 1000 nM; for `Nc1nn2cc(F)cnc2c1C(=O)Nc1cnccc1N1CCN(S(=O)(=O)C2COC2)CC1` [I-N-195, 2-amino-6-fluoro-N-(4-(4-(oxetan-3-ylsulfonyl)piperazin-1-yl)pyridin-3-yl)pyrazolo[1,5-a]pyrimidine-3-carboxamide], 10 to 1000 nM.
On to `N#CCc1cnc2c(C(=O)Nc3cnccc3OC3CCC3)c(N)nn2c1` [I-O-36, 2-amino-6-(cyanomethyl)-N-(4-cyclobutoxypyridin-3-yl)pyrazolo[1,5-a]pyrimidine-3-carboxamide], for which the Ki was < 10 nM.
On the same count and under the same terms, under `COCC1CN(C(=O)C2CCN(c3c(F)cncc3NC(=O)c3c(N)nn4cc(F)cnc34)CC2)C1` [I-G-98, 2-amino-6-fluoro-N-(5-fluoro-4-(4-(3-(methoxymethyl)azetidine-1-carbonyl)piperidin-1-yl)pyridin-3-yl)pyrazolo[1,5-a]pyrimidine-3-carboxamide] stands 10 to 1000 nM; under `Nc1nn2cc(F)cnc2c1C(=O)Nc1cnccc1N1CCC(N2CCCC2=O)CC1` [I-N-230, 2-amino-6-fluoro-N-(4-(4-(2-oxopyrrolidin-1-yl)piperidin-1-yl)pyridin-3-yl)pyrazolo[1,5-a]pyrimidine-3-carboxamide], 10 to 1000 nM.
